The results in this text go back to patent publication US10538491B2, “4,5-substituted picolinamide and picolinonitrile metabotropic glutamate receptor 2 negative allosteric modulators” (Vanderbilt University, priority 2015, dated 2020).

What is called IC50 is the point on the concentration scale where inhibition reaches its midpoint. The low end stands for greater potency, the high end for weaker potency.

The target in this assay is rat mGlu2 (Rattus norvegicus (Rat), UniProt P31421). Briefly: mGlu2 Ca2+ flux assay. Format: cell-based. Conditions: for IC50: Gα15 HEK293 cells stably expressing rat mGlu2, glutamate EC80, >10,000 = no plateau, >30,000 = no measurable activity; for rat mGlu2 Glu max / remaining activity at 30 µM: amplitude of response in the presence of 30 μM test compound as percentage of maximal response to glutamate; for remaining activity at 30 µM: read-out: rat mGlu2 Glu max. The essentials: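 Gα15 HEK293 cells stably expressing rat mGlu2, Fluo-4 loaded; compound added, then glutamate at EC20 after 2.3 min and EC80 afterward, calcium flux read as F/F0. Peak amplitude around EC80 addition normalized to glutamate max; IC50 by unconstrained 4-parameter fit, top concentration 30 μM.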
Chain of rat mGlu2 (P31421 19-872): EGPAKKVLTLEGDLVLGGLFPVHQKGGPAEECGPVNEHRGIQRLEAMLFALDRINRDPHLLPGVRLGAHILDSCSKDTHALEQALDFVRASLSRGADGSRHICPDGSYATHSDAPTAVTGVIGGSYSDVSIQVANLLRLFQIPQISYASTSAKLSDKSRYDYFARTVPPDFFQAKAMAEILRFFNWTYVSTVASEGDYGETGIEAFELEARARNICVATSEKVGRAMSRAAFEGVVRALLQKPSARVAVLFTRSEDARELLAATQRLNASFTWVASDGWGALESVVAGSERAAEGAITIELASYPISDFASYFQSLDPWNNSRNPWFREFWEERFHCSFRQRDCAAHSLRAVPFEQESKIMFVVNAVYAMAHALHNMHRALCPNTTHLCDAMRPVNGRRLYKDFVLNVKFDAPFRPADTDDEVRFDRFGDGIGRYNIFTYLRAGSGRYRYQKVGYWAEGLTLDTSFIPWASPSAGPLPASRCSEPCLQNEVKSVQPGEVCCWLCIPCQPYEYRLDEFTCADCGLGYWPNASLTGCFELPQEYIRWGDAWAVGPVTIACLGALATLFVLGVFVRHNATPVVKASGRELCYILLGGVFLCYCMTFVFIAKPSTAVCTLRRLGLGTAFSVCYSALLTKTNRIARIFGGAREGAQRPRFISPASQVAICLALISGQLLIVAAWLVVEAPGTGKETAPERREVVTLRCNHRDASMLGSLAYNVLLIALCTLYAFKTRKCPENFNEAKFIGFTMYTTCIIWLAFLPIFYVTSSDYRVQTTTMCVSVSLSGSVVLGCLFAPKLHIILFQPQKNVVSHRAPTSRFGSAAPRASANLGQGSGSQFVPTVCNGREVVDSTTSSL
Background: Calcium assays in cells follow changes in intracellular calcium, usually with a dye or a luminescent sensor.

Each structure is given as a SMILES string. Where only a bound is given, the exact number is not on record here.

On to `NC(=O)c1cc(-c2ccc(F)cc2)c(OCCOc2cncc(F)c2)cn1` [Compound 112], for which the IC50 came out at 827 nM and the “rat mGlu2 Glu max” value turned out to be 0.05%.

Regarding `NC(=O)c1cc(-c2ccc(F)cc2)c(OCCOc2ccc(F)nc2)cn1` [Compound 113], the IC50 amounted to 502 nM and the “rat mGlu2 Glu max” value was 1.38 (n = 2) %.

For the compound `Cc1ccc(OCCOc2cnc(C(N)=O)cc2-c2ccc(F)cc2)cn1` [Compound 114], the half-inhibitory concentration (IC50) was determined as 738 nM and the “rat mGlu2 Glu max” value was 1.80%.

With `NC(=O)c1cc(-c2ccc(F)cc2)c(OCCOc2ccc(C(F)(F)F)nc2)cn1` [Compound 115, 4-(4-fluorophenyl)-5-(2-((6-(trifluoromethyl)pyridin-3-yl)oxy)ethoxy)picolinamide], half-maximal inhibition (IC50) was put at 1310 nM and the remaining activity at 30 µM was 3.64%.

Regarding `NC(=O)c1cc(-c2ccc(F)cc2)c(OCCOc2ccnc(C(F)(F)F)c2)cn1` [Compound 116, 4-(4-fluorophenyl)-5-(2-((2-(trifluoromethyl)pyridin-4-yl)oxy)ethoxy)picolinamide], 242 ± 83 nM corresponded to half-maximal inhibition (IC50) and the remaining activity at 30 µM amounted to 1.51 ± 0.16%.

Turning to `NC(=O)c1cc(-c2ccc(F)cc2)c(OCCOc2ccnc(F)c2)cn1` [Compound 117, 4-(4-fluorophenyl)-5-(2-((2-fluoropyridin-4-yl)oxy)ethoxy)picolinamide], the IC50 worked out at 615 nM and the remaining activity at 30 µM turned out to be 1.02%.

For the compound `Cc1cc(OCCOc2cnc(C(N)=O)cc2-c2ccc(F)cc2)ccn1` [Compound 118, 4-(4-fluorophenyl)-5-(2-((2-methylpyridin-4-yl)oxy)ethoxy)picolinamide], half-maximal inhibition (IC50) was put at 410 nM and the remaining activity at 30 µM amounted to 1.16%.

As to `Cc1ncc(OCCOc2cnc(C(N)=O)cc2-c2ccc(F)cc2)cn1` [Compound 119, 4-(4-fluorophenyl)-5-(2-((2-methylpyrimidin-5-yl)oxy)ethoxy)picolinamide], the IC50 was greater than 10000 nM and the remaining activity at 30 µM turned out to be 20.3%.

For the compound `CC(COc1ccnc(C(F)(F)F)c1)Oc1cnc(C(N)=O)cc1-c1ccc(F)cc1` (centres unmarked) [Compound 120, 4-(4-fluorophenyl)-5-((1-((2-(trifluoromethyl)pyridin-4-yl)oxy)propan-2-yl)oxy)picolinamide], half-maximal inhibition (IC50) required 483 nM and the remaining activity at 30 µM turned out to be 1.72%.

Consider `Cc1ccc(OC(C)COc2cnc(C(N)=O)cc2-c2ccc(F)cc2)cn1` (centres unmarked) [Compound 121, 4-(4-fluorophenyl)-5-(2-((6-methylpyridin-3-yl)oxy)propoxy)picolinamide], for which the IC50 was determined as 2130 nM and the remaining activity at 30 µM amounted to 1.66%.

As to `Cc1ncc(OC(C)COc2cnc(C(N)=O)cc2-c2ccc(F)cc2)cn1` (centres unmarked) [Compound 122, 4-(4-fluorophenyl)-5-(2-((2-methylpyrimidin-5-yl)oxy)propoxy)picolinamide], the IC50 is greater than 10000 nM and the remaining activity at 30 µM came to 8.04%.

For `CC(COc1cnc(C(N)=O)cc1-c1ccc(F)cc1)Oc1cccnc1` (centres unmarked) [Compound 123, 4-(4-fluorophenyl)-5-(2-(pyridin-3-yloxy)propoxy)picolinamide], the IC50 was determined as 1510 nM and the remaining activity at 30 µM was 0.37%.

Regarding `CC(COc1cnc(C(N)=O)cc1-c1ccc(F)cc1)Oc1ccnc(C(F)(F)F)c1` (centres unmarked) [Compound 124, 4-(4-fluorophenyl)-5-(2-((2-(trifluoromethyl)pyridin-4-yl)oxy)propoxy)picolinamide], the midpoint of inhibition, the IC50, lay at 835 nM and the remaining activity at 30 µM amounted to 0.75%.

As for `Cc1ncc(OCCCOc2cnc(C(N)=O)cc2-c2ccc(F)cc2)cn1` [Compound 125, 4-(4-fluorophenyl)-5-(3-((2-methylpyrimidin-5-yl)oxy)propoxy)picolinamide], the IC50 was greater than 10000 nM and the remaining activity at 30 µM was found to be 35.1%.

Take `NC(=O)c1cc(-c2ccc(F)cc2)c(OCCCOc2ccc(C(F)(F)F)nc2)cn1` [Compound 126]: the IC50 stood at 2940 nM and the “rat mGlu2 Glu max” value is listed as 5.52%.

`NC(=O)c1cc(-c2ccc(F)cc2)c(OCCCOc2ccnc(C(F)(F)F)c2)cn1` [Compound 127, 4-(4-fluorophenyl)-5-(3-((2-(trifluoromethyl)pyridin-4-yl)oxy)propoxy)picolinamide]: the IC50 turned out to be 1590 nM and the remaining activity at 30 µM was 2.03%.

Regarding `NC(=O)c1cc(-c2ccc(F)cc2)c(OCCCOc2cccnc2)cn1` [Compound 128, 4-(4-fluorophenyl)-5-(3-(pyridin-3-yloxy)propoxy)picolinamide], the half-maximal inhibitory concentration (IC50) was determined as 3780 nM and the remaining activity at 30 µM came out at 2.52%.

`Cc1ccc(OCCCOc2cnc(C(N)=O)cc2-c2ccc(F)cc2)cn1` [Compound 129]: inhibition was half-maximal at 2870 nM (IC50) and the “rat mGlu2 Glu max” value is given as 2.91%.

In the case of `NC(=O)c1cc(-c2ccc(F)cc2)c(OCCOCc2ccccc2)cn1` [Compound 130, 5-(2-(benzyloxy)ethoxy)-4-(4-fluorophenyl)picolinamide], the IC50 was determined as 2250 nM and the remaining activity at 30 µM is 9.91%.

In the case of `CN(CCOCc1cncc(F)c1)c1cnc(C(N)=O)cc1-c1ccc(F)cc1` [Compound 131, 4-(4-fluorophenyl)-5-((2-((5-fluoropyridin-3-yl)methoxy)ethyl)(methyl)amino)picolinamide], the midpoint of inhibition, the IC50, lay at 5770 nM and the remaining activity at 30 µM was determined as 2.62%.

Turning to `NC(=O)c1cc(-c2ccc(F)cc2)c(NCC2CCOCC2)cn1` [Compound 132, 4-(4-fluorophenyl)-5-(((tetrahydro-2H-pyran-4-yl)methyl)amino)picolinamide], the midpoint of inhibition, the IC50, lay at 1050 nM and the remaining activity at 30 µM is -1.48%.

In the case of `NC(=O)c1cc(-c2ccc(F)cc2)c(NCCN2CCOCC2)cn1` [Compound 133, 4-(4-fluorophenyl)-5-((2-morpholinoethyl)amino)picolinamide], inhibition was half-maximal at 6540 nM (IC50) and the remaining activity at 30 µM was -4.31%.

For the compound `CC(CN1CCOCC1)Nc1cnc(C(N)=O)cc1-c1ccc(F)cc1` (centres unmarked) [Compound 134, 4-(4-fluorophenyl)-5-((1-morpholinopropan-2-yl)amino)picolinamide], 2710 nM corresponded to half-maximal inhibition (IC50) and the remaining activity at 30 µM was -3.71%.

Consider `CC(CNc1cnc(C(N)=O)cc1-c1ccc(F)cc1)N1CCOCC1` (centres unmarked) [Compound 135, 4-(4-fluorophenyl)-5-((2-morpholinopropyl)amino)picolinamide], for which the IC50 was found to be 5700 nM and the remaining activity at 30 µM came out at 1.19%.

`CN(CCN1CCOCC1)c1cnc(C(N)=O)cc1-c1ccc(F)cc1` [Compound 136, 4-(4-fluorophenyl)-5-(methyl(2-morpholinoethyl)amino)picolinamide]: the IC50 was greater than 10000 nM and the remaining activity at 30 µM was 31%.

`NC(=O)c1cc(-c2ccc(F)cc2)c(NCCCN2CCOCC2)cn1` [Compound 137, 4-(4-fluorophenyl)-5-((3-morpholinopropyl)amino)picolinamide]: the IC50 was determined as 9870 nM and the remaining activity at 30 µM is -13.5%.

`NC(=O)c1cc(-c2ccc(F)cc2)c(N2CCC(Oc3ccnc(C(F)(F)F)c3)CC2)cn1` [Compound 138, 4-(4-fluorophenyl)-5-(4-((2-(trifluoromethyl)pyridin-4-yl)oxy)piperidin-1-yl)picolinamide] returned an IC50 greater than 10000 nM.

As to `Cc1ccc(OC2CCN(c3cnc(C(N)=O)cc3-c3ccc(F)cc3)CC2)cn1` [Compound 139, 4-(4-fluorophenyl)-5-(4-((6-methylpyridin-3-yl)oxy)piperidin-l-yl)picolinamide], half-maximal inhibition (IC50) was put at 9590 nM and the “rat mGlu2 Glu max” value came to 7.04%.

As for `NC(=O)c1cc(-c2ccc(F)cc2)c(N2CCC(Oc3cccnc3)CC2)cn1` [Compound 140, 4-(4-fluorophenyl)-5-(4-(pyridin-3-yloxy)piperidin-1-yl)picolinamide], the IC50 is greater than 10000 nM and the remaining activity at 30 µM was found to be 29.8%.

For `NC(=O)c1cc(-c2ccc(F)cc2)c(N2CC(Oc3ccc(C(F)(F)F)nc3)C2)cn1` [Compound 141, 4-(4-fluorophenyl)-5-(3-((6-(trifluoromethyl)pyridin-3-yl)oxy)azetidin-1-yl)picolinamide], the IC50 is greater than 10000 nM and the remaining activity at 30 µM was found to be 53.9%.

In the case of `Cc1ccc(OC2CN(c3cnc(C(N)=O)cc3-c3ccc(F)cc3)C2)cn1` [Compound 142, 4-(4-fluorophenyl)-5-(3-((6-methylpyridin-3-yl)oxy)azetidin-1-yl)picolinamide], half-maximal inhibition (IC50) required 1280 nM and the remaining activity at 30 µM was 2.35%.

With `NC(=O)c1cc(-c2ccc(F)cc2)c(N2CC(Oc3cccnc3)C2)cn1` [Compound 143, 4-(4-fluorophenyl)-5-(3-(pyridin-3-yloxy)azetidin-1-yl)picolinamide], 2030 nM corresponded to half-maximal inhibition (IC50) and the remaining activity at 30 µM came to 7.01%.

Take `NC(=O)c1cc(-c2ccc(F)cc2)c(N2CCC(Oc3ccnc(C(F)(F)F)c3)C2)cn1` (centres unmarked) [Compound 144, 4-(4-fluorophenyl)-5-(3-((2-(trifluoromethyl)pyridin-4-yl)oxy)pyrrolidin-1-yl)picolinamide]: the IC50 came out at 7450 nM and the remaining activity at 30 µM was determined as 1.28%.

On to `N#Cc1cccc(COc2cnc(C(N)=O)cc2-c2ccc(F)cc2)c1` [Compound 145, 5-((3-Cyanobenzyl)oxy)-4-(4-fluorophenyl)picolinamide], for which it took 429 nM to reach half-maximal inhibition (IC50) and the remaining activity at 30 µM was 1.5%.

On to `N#Cc1cc(F)cc(COc2cnc(C(N)=O)cc2-c2ccc(F)cc2)c1` [Compound 146, 5-((3-cyano-5-fluorobenzyl)oxy)-4-(4-fluorophenyl)picolinamide], for which 944 nM corresponded to half-maximal inhibition (IC50) and the remaining activity at 30 µM came to 0.48%.

As for `N#Cc1ccc(F)c(COc2cnc(C(N)=O)cc2-c2ccc(F)cc2)c1` [Compound 147, 5-((5-cyano-2-fluorobenzyl)oxy)-4-(4-fluorophenyl)picolinamide], the IC50 was determined as 313 nM and the remaining activity at 30 µM was 0.73%.
